The target of experiment [1] is P2X purinoceptor (Oryctolagus cuniculus) (UniProt G1U3D6). The experiment in a line: Activity against P2X/RB in the Eurofins SafetyScreen44 (BI) by Radioactive Assay. The note with it: Compound concentration 10.0 uM.
The target of experiment [2] is B2 bradykinin receptor (Homo sapiens) (UniProt P30411). The experiment in a line: Activity against B2/HU in the Eurofins SafetyScreen44 (BI) by Radioactive Assay. To be noted: Compound concentration 10.0 uM.
For experiment [3], the target named is Glutamate receptor ionotropic, NMDA 2A (Rattus norvegicus) (UniProt Q00959). The experiment in a line: Activity against NMDAPHSI/R in the Eurofins SafetyScreen44 (BI) by Radioactive Assay. The note with it: Compound concentration 10.0 uM.
Chain of Glutamate receptor ionotropic, NMDA 2A (Rattus norvegicus) (Q00959 23-1464 limits assumed): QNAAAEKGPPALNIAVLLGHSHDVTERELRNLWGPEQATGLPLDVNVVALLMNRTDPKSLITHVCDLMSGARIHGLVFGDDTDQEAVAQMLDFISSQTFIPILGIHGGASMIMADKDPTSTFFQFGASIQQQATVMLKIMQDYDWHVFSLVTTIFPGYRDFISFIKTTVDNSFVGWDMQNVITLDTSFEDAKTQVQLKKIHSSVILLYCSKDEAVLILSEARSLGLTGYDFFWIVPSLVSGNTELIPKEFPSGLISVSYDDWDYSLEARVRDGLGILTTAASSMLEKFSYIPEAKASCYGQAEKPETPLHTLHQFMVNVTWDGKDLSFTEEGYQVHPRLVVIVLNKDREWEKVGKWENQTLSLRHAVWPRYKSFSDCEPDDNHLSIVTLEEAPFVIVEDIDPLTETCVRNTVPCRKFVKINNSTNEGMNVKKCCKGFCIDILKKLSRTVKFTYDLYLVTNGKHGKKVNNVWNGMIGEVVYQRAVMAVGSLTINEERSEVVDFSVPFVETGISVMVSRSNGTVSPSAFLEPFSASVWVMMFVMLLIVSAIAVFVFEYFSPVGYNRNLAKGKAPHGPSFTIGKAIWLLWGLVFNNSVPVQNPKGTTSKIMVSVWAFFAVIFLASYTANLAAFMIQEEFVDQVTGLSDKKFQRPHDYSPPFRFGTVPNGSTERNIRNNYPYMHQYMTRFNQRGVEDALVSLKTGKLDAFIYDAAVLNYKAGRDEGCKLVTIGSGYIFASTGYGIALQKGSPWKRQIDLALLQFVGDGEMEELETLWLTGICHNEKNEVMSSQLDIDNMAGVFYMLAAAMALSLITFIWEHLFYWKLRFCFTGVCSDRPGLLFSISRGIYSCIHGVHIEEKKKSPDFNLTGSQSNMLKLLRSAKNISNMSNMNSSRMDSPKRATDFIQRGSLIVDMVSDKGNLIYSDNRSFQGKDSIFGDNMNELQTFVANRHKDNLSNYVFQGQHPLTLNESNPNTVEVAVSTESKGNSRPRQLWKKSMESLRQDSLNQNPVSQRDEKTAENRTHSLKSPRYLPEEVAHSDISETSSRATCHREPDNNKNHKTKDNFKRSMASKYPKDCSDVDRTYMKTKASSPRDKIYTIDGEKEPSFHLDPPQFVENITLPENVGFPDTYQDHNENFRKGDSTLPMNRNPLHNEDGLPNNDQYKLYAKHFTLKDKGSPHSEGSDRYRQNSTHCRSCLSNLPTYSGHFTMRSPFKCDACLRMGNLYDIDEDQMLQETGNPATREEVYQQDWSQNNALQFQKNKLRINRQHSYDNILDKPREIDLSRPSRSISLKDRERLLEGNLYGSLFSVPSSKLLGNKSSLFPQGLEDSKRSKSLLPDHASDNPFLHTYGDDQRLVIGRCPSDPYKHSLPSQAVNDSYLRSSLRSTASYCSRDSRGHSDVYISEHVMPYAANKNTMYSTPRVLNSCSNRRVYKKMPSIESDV
Experiment [4] addresses B1 bradykinin receptor (Oryctolagus cuniculus, UniProt P48748). As to the kind of experiment: Radioligand binding assay (displacement of kallidin, rabbit BDKRB1 ) at 10 µM ( Non-specific binding is estimated in the presence of 10 µM Des-Arg9- (Leu8)-Bradykinin. Membranes are filtered and washed, the filters are then counted to determine [3H]Kallidin[des-Arg10, Leu9] specifically bound.). Details: compound concentration 10 uM.

Experiment [5] deals with Neuropeptide Y receptor type 1 (Homo sapiens) (UniProt P25929). As to the kind of experiment: Activity against Y1/HU in the Eurofins SafetyScreen44 (BI) by Radioactive Assay. To be noted: Compound concentration 10.0 uM.
Chain of Neuropeptide Y receptor type 1 (Homo sapiens) (P25929 whole entry): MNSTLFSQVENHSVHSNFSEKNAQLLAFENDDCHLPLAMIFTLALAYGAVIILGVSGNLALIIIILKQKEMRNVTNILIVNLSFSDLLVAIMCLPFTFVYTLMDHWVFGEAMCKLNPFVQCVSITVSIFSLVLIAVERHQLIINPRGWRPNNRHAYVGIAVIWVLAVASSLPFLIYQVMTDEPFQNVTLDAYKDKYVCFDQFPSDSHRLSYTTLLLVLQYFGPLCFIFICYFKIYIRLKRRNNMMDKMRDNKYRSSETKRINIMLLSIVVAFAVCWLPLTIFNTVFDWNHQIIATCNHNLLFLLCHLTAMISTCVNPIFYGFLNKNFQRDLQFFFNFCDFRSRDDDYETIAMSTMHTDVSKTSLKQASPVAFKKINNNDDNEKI
Experiment [6] has as its target Sodium-dependent noradrenaline transporter (Homo sapiens) (UniProt P23975). The experiment in a line: Activity against NETRANS/H in the Eurofins SafetyScreen44 (BI) by Radioactive Assay. To be noted: Compound concentration 10.0 uM.
For experiment [7], the target named is Beta-2 adrenergic receptor (Homo sapiens) (UniProt P07550). The experiment in a line: Activity against BETA2/HU in the Eurofins SafetyScreen44 (BI) by Radioactive Assay. The note with it: Compound concentration 10.0 uM.
Chain of Beta-2 adrenergic receptor (Homo sapiens) (P07550 whole entry, looked up): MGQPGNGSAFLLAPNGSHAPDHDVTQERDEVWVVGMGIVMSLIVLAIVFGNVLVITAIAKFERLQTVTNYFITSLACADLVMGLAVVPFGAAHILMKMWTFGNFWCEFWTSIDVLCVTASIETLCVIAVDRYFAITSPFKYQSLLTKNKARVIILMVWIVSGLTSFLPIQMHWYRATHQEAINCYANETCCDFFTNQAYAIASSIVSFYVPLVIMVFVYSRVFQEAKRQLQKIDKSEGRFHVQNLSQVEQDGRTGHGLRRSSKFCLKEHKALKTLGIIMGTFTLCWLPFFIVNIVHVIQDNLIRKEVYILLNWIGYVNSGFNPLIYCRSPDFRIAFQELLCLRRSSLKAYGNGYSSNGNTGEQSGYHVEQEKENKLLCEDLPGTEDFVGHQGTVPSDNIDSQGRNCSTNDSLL

Activity calls are given as the source filed them. The rule behind the calls is not given here.

In general, residual activity refers to the signal under treatment as a percentage of the control signal. As a reminder, the Ki is a measure of affinity in units of concentration, obtained from inhibition or displacement.

Chain of Sodium-dependent noradrenaline transporter (Homo sapiens) (P23975 whole entry): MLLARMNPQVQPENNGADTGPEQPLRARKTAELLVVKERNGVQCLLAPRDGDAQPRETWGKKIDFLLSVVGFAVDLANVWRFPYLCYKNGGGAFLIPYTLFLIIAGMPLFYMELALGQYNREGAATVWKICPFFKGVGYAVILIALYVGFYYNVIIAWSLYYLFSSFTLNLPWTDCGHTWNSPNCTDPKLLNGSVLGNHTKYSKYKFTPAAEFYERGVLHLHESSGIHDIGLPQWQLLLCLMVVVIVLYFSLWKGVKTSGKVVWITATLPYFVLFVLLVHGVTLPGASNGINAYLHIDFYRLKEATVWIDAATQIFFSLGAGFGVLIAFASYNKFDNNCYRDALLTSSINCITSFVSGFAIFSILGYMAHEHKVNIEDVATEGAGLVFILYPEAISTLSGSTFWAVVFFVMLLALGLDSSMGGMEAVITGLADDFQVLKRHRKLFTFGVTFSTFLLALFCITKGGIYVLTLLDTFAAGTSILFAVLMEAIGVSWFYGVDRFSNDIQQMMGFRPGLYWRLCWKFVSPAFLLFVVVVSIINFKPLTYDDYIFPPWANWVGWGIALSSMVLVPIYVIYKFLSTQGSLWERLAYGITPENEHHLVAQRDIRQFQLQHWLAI
Chain of B1 bradykinin receptor (P48748 whole entry): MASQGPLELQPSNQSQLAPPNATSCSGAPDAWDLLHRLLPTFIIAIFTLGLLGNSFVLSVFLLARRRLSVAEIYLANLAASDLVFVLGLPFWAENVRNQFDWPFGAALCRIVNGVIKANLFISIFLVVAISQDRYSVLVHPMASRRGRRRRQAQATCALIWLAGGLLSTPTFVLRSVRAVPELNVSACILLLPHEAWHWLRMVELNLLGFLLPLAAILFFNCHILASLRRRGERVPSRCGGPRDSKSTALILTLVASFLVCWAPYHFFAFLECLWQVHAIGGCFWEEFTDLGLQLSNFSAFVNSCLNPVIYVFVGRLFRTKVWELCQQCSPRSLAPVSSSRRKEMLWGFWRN
Chain of B2 bradykinin receptor (Homo sapiens) (P30411 whole entry): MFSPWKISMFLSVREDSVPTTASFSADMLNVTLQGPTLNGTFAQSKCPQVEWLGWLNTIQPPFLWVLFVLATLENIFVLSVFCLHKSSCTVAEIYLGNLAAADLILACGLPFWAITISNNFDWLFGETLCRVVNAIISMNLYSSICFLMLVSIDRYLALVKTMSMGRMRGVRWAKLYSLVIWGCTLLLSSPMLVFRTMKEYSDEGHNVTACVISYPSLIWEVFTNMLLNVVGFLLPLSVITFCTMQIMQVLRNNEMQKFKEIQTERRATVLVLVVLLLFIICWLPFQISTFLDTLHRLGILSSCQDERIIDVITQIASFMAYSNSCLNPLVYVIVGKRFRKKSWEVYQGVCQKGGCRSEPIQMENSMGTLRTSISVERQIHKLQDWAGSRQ
Chain of P2X purinoceptor (Oryctolagus cuniculus) (G1U3D6 as listed by the source): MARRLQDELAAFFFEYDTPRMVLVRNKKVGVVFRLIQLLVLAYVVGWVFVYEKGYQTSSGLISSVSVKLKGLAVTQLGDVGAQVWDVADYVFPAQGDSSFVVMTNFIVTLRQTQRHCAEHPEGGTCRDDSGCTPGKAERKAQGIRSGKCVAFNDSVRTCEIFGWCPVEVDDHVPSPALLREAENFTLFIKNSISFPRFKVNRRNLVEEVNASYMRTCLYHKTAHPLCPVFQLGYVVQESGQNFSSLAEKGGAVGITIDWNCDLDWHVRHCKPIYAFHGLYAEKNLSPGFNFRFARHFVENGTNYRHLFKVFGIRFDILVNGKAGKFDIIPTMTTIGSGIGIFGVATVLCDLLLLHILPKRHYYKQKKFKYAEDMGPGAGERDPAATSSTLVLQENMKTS

As for `COc1cc(C)c(S(=O)(=O)N(C)CCOCC(=O)N(C)[C@H]2CCC[C@@H](N3CCN(C)CC3)C2)c(C)c1`, the residual activity was 100% in experiment [1]; 108% in experiment [2]; 111% in experiment [3]; 109% in experiment [5]; 114% in experiment [6]; 103% in experiment [7]. The Ki in experiment [4] was 15.3 nM (active).
